The source of these data is patent US10188617B2, “Modulation of cellular DNA repair activity to intercept malignancy” (THE BOARD OF TRUSTEES OF THE LELAND STANFORD JUNIOR …, priority 2013, dated 2019).

In data set [1] the test system is SUM149PT and other cell lines. Briefly: MTT assay (cell viability). The format is cell-based, human. Particulars: concentrations up to 1 mM, 72 hours. In general terms: Tetrazolium dyes change colour on reduction, which living cells bring about.
In data set [2] the test system is BER of ODD in MCF7 cells (wild-type BRCA1, BER-proficient). Briefly: DNA repair assay (oxidatively damaged GFP reporter gene), follow-up. The format is cell-based, human. Particulars: 20 μM, MCF7, vs vehicle. How it is done: (§1) Human breast cancer cell lines that were deficient in BER (HCC1143, MDAMB468, HCC1937, and SUM149) or proficient in BER (BT474 and MCF7) were cultured according to American Type Culture Collection guidelines, with the exception of SUM149, which was cultured according to Asterand plc guidelines. Brca1^+/+ and Brca1^-/- mouse mammary epithelial […] previously described. Cells were treated with DMSO (vehicle control) or acetohexamide or benserazide as indicated for 24 hours at 37° C. and 5% CO2. The DNA repair assay was carried out as described in the examples below. Where indicated, BER (base excision mode of DNA repair) activity was expressed relative to the control (DMSO).
On the technique in general: A reporter such as luciferase makes a cellular process visible.

Data set [3] concerns BER of ODD in BT474 cells (wild-type BRCA1). The data set is described as above. The format is cell-based, human. Particulars: 20 μM, BT474, vs vehicle. The method, then:
as §1

Data set [4] concerns BER of ODD in SUM149 cells (mutant BRCA1, BER-defective). The data set is described as above. The format is cell-based, human. Particulars: for BER: 20 μM, SUM149, vs vehicle; for repair of oxidatively damaged GFP reporter gene, dose-response: SUM149PT cells, 24 hours treatment. How it is done:
as §1

Data set [5] concerns BER of ODD in HCC1937 cells (mutant BRCA1). The data set is described as above. The format is cell-based, human. Particulars: 20 μM, HCC1937, vs vehicle. How it is done: as §1
In data set [6] the test system is BER-defective and BER-proficient cells. As to the kind of experiment: Alkaline comet assay, strand breaks. The format is cell-based. Particulars: compared to the vehicle control; H2O2 positive control. How it is done: (§2) Cells were collected and embedded into CometAssay® LM Agarose (Trevigen) and placed on CometAssay® HT Slides (Trevigen) in duplicate. Cells were lysed at 4° C. in Lysis Buffer (Trevigen) for >24 hours. Slides were treated with or without FPG enzyme at 37° C. and 5% CO2 for 45 minutes to nick DNA at sites of ODD and then subjected to alkaline treatment at 4° C. for 40 minutes to denature DNA. Slides underwent electrophoresis under alkaline conditions to separate intact from damaged DNA. Following neutralization, DNA was stained using SYBR® green I and visualized as a comet in shape by fluorescent microscopy under 20× objective. […] CometScore software was used to quantify % DNA in Tail. Strand breaks were determined by % DNA in Tail in FPG-minus samples. ODD was determined by subtracting % DNA in Tail in FPG-minus samples from % DNA in Tail in FPG-plus samples.

The subject of data set [7] is H2O2-induced ODD in breast cancer cell lines with defective BER. As to the kind of experiment: Alkaline comet assay modified for detection of oxidative lesions (FPG). The format is cell-based, human. Particulars: pretreatment, compared to undamaged control. How it is done: as §2
Data set [8] deals with other BER-defective breast cancer cell lines. Briefly: Hoechst live-cell staining (cell number). The format is cell-based, human. Particulars: 20 μM. The method, then:
(§3) Cells were treated with acetohexamide for 48 hours in quadruplicate and then incubated with 2 μg/ml Hoechst 33358 live-cell dye for 20 minutes. Four representative fields for each replicate were imaged by the ImageXpress 5000A high-content imager (Molecular Devices). Nuclei were counted using MetaMorph® software (Molecular Devices) and expressed as a percentage relative to the vehicle control (DMSO).

For the next data set, the system named is SUM149PT cells. Briefly: Hoechst live-cell staining (cell number). The format is cell-based, human. Particulars: concentrations up to 40 μM. How it is done: as §3
Data set [9] relates to 8oxoG lesions in breast cancer cell lines with defective BER. Briefly: 8oxoG lesions (OxyFlow Kit). The format is cell-based, human. Particulars: time-dependent. How it is done:
Cells were analyzed using the OxyFlow™ Kit (Hemogenix) according to the manufacturer's instructions.

In data set [10] the test system is BER of ODD in SUM149PT cells. As to the kind of experiment: High-throughput chemical screen with cell-based DNA repair assay (oxidatively damaged GFP reporter, host-cell reactivation).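 Note: SUM149PT cells pretreated 24 h with compound, then given photodynamically oxidized adenoviral GFP reporter, 24 h host-cell reactivation, GFP read as repair, undamaged reporter positive and damaged reporter negative control.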
Data set [11] concerns BRCA1 wild-type (MCF7) and mutant (HCC1937) cells. Briefly: Trypan blue exclusion assay (cell viability). The format is cell-based, human. Particulars: treated simultaneously with the colony formation assay. An excerpt: In FIG. 14C, BRCA1 wild-type (MCF7) and mutant (HCC1937) cells were simultaneously treated and then analyzed for cell viability by the trypan blue exclusion assay.

The subject of data set [12] is BRCA1-mutant/deficient cells. Briefly: Soft agar colony formation assay (in vitro tumorigenesis). The format is cell-based, human. Particulars: 20 μM benserazide vs 1 μM tamoxifen and vehicle. How it is done:
BRCA1 wild-type (MCF7) and mutant (HCC1937) cells (FIG. 14A) as well as MCF7 cells stably transduced with shRNA to BRCA1 or non-targeting control (FIG. 14B) were treated with vehicle control, 20 μM benserazide, or 1 μM tamoxifen and subjected to the soft agar colony formation assay, i.e. the standard assay for in vitro tumorigenesis. Colony formation represents tumorigenic potential. Tamoxifen is the current FDA-approved chemoprevention agent for breast cancer and a therapeutically-equivalent dose was used for comparison.

The subject of a further data set is HCC1937 cells. As to the kind of experiment: Mouse xenograft model of in vivo tumorigenesis (chemoprevention). The method, then: For in vivo tumorigenesis, we utilized a mouse xenograft model that began treatment with the DNA repair-activating agent 24 hours prior to inoculation of HCC1937 cells into the mammary fat pad. Treatment with vehicle control, 50 mg/kg benserazide, or 250 mg/kg benserazide continued daily for up to 60 days while monitoring for tumor formation by palpitation. After the 60 days (i.e. study endpoint), serum was collected for analysis of 8oxodG levels, tumors (if present) were excised and weighed, and anatomy was analyzed for metastasis.

Setting [13] is: study endpoint 60 days, dose response.

In the case of `CC(=O)c1ccc(S(=O)(=O)NC(=O)NC2CCCCC2)cc1` [Acetohexamide], the “cell viability (MTT)” value in [1] is given as “did not affect the cell viability”. In addition, the BER entry is given as “no effect on BER” in data set [2], “no effect on BER” in data set [3], “statistically significant increase in BER” in data set [4] and “statistically significant increase in BER” in data set [5]. In data set [4], the “repair of oxidatively damaged GFP reporter gene, dose-response” value was “dose-response increase in repair of an oxidatively damaged GFP reporter gene”. The “relative BER activity” value in data set [4] (relative to the control (DMSO)) was determined as 1.68±0.13. Further, the DNA strand breaks entry in [6] was “did not significantly induce DNA strand breaks”. In data set [7], the “H2O2-induced ODD” value is reported as “decreased H2O2-induced ODD to levels similar to those of the undamaged control”. Moreover, the “cell number (Hoechst 33342 staining)” value in [8] was “nor did it affect the cell number”. Also, the “number of cells (Hoechst 33342 staining)” value with SUM149PT cells is given as “did not affect the number of SUM149PT cells”. The “basal levels of 8oxoG lesions” value in data set [9] is given as “decreased basal levels of 8oxoG lesions”. In data set [10] (read-out: EC50 (image analysis), dose-response increase in GFP expression by imaging, 20 μM to 0.3 μM two-fold dilutions), the EC50 was determined as 42.4 µM. Also, the Hoechst-positive cells in data set [10] (screening data by imaging, compared to negative control) is 87.8%. For the same compound, the “Priority score (summed priority score)” value in data set [10] (sum of assigned priority scores, range 1-10, 10 = highest priority) was determined as 7.
Regarding `NC(CO)C(=O)NNCc1ccc(O)c(O)c1O` (stereo not shown) [benserazide, 2-amino-3-hydroxy-N′-[(2,3,4-trihydroxyphenyl)methyl]propanehydrazide], the BER result in [2] was “no effect on BER”; in data set [3], “no effect on BER”; in [4], “statistically significant increase in BER”; in data set [5] it was “statistically significant increase in BER”. Further, the “repair of oxidatively damaged GFP reporter gene, dose-response” value in data set [4] is listed as “dose-response increase in repair of an oxidatively-damaged GFP reporter gene”. In data set [11], the “cell viability (trypan blue exclusion)” value was “not due to a decrease in cell viability”. The “in vitro tumorigenic potential (colony formation)” value in data set [12] is listed as “prevented in vitro tumorigenesis”; in data set [12] (listed as Benserazide) it was “superior to tamoxifen at reducing in vitro tumorigenic potential”. In addition, the “tumor formation over time” value in the data set on HCC1937 cells (50 or 250 mg/kg daily up to 60 days) was “delayed tumor formation over time”. In addition, in the data set on HCC1937 cells (50 or 250 mg/kg daily up to 60 days, started 24 hours prior to inoculation), the “percentage of tumor-free mice” value is recorded as “increased the percentage of tumor-free mice in a dose-response manner”. For the same compound, in the data set with HCC1937 cells (both concentrations (50 and 250 mg/kg), unlike vehicle control), the metastasis entry was “prevented metastasis”. Moreover, in the data set with HCC1937 cells (setting [13]), the “serum levels of 8oxodG” value is recorded as “increase serum levels of 8oxodG”. Also, the tumor weights entry in the data set with HCC1937 cells (setting [13]) is listed as “decrease tumor weights”.

As a reminder, the EC50 is the concentration needed to bring the measured effect to its halfway point.
